Experiment [1] concerns the target T1, 5-HT1A serotonin receptor subtype (Rattus norvegicus, UniProt P19327).
T1 construct: from tissue
T1 sequence (P19327 1-422): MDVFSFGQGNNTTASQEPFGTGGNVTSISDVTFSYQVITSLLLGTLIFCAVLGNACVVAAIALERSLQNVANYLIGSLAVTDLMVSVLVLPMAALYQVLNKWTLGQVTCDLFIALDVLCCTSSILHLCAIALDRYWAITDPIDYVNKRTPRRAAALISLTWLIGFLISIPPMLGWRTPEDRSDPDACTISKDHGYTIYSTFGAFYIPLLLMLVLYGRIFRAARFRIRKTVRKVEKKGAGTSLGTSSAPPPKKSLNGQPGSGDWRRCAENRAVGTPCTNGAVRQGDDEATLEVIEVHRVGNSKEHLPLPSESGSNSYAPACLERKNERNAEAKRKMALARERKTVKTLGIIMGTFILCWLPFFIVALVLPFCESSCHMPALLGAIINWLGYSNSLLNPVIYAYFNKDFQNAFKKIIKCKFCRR
In words: Affinity for 5-HT1A receptor sites, displacement of 3H-8-OH DPAT (Hall et al.). Type of experiment: binding. To be noted: for inhibition at 1 µM: 1 μM test compound. (In a radioligand displacement assay an active substance lowers the binding of a labelled ligand.)
Description: The serotoninergic properties of the compounds of this invention were established by the procedure of Hall et al., J. Neurochem.

Experiment [2] addresses T2, limbic D2 (dopamine) receptor (Rattus norvegicus, UniProt P61169).
T2 construct: from tissue; host or cells: limbic brain tissue
In words: Affinity for D2 receptor sites, inhibition of 3H-spiroperidol binding to limbic brain tissue. To be noted: 1 μM test compound.

In experiment [3] the target is T3, M1 muscarinic receptor (Rattus norvegicus, UniProt P08482).
T3 construct: from tissue; host or cells: rat hippocampus
T3 sequence (P08482 1-460): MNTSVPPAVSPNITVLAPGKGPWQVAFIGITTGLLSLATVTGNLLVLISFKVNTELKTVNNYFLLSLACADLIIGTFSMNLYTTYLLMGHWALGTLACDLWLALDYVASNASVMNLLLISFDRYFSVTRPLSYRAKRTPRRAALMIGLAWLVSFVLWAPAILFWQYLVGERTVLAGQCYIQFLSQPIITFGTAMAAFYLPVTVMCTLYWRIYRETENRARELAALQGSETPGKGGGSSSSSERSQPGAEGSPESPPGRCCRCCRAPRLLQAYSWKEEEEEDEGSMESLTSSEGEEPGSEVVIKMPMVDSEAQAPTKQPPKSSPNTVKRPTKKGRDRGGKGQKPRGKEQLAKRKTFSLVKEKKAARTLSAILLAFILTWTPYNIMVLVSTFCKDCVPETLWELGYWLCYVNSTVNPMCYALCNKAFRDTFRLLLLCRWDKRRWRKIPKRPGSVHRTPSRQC
In words: M1 muscarinic receptor binding, [3H] pirenzipine, rat hippocampus. As for the experimental part: The M1 muscarinic receptor binding properties of the compounds of this invention were established as follows:
Homogenized rat hippocampus tissue is suspended in 0.32M aqueous sucrose solution and centrifuged (747×g for 10 minutes at 4° C.) and the supernatent liquid is decanted and recentrifuged (18,677×g for 20 minutes at 4° C.). The resulting pellet is resuspended in the original volume of 0.32M aqueous sucrose. The sample is then diluted 1:2 in 10 mM Na2 HPO4 /KH2 PO4 buffer (pH=7.4). A 100 μl sample of the buffered tissue suspension is incubated at 25° C. for 60 minutes in the dark with 10 μl of test compound or vehicle for control and [^3 H] pirenzipine (0.5 nM, 0.04 μCi) q.s. 1 milliliter with the buffer solution. Atropine sulfate (2 μM) is added to half the samples being processed. Binding is terminated by vacuum filtration onto Whatman GF/B filters which are washed three times with the buffer solution (3 ml/wash, 4° C.). […] Specific ]^3 H] PZ binding is defined as total binding minus binding in the presence of 2 μM atropine sulfate.

Experiment [4] deals with T4, M2 muscarinic receptor (Rattus norvegicus, UniProt P10980).
T4 construct: Homogenized rat cerebellum tissue; from tissue; host or cells: rat cerebellum
T4 sequence (P10980 1-466): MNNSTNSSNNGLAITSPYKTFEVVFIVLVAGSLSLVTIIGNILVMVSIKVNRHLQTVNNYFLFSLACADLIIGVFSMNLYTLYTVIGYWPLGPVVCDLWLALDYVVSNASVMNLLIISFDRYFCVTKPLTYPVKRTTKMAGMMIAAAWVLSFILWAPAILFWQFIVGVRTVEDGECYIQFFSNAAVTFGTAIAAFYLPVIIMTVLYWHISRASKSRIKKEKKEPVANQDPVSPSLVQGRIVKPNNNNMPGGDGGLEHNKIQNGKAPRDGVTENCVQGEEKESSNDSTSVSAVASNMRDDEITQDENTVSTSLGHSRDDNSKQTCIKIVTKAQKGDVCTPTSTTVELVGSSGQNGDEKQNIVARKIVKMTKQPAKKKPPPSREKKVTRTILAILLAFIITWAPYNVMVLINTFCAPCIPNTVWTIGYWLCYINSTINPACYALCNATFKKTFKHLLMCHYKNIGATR
In words: M2 receptor binding, [3H] quinuclidinyl benzilate, rat cerebellum. As to conditions: [3H] quinuclidinyl benzilate 0.23 nM, 37° C., 60 minutes.

For experiment [5] the following is noted: background statement, Barone et al., 1986; cited from earlier work.

The structures appear in SMILES notation. pIC50, pKi: −log10 of the molar value.

As usually defined, the inhibition is how much of the control response was suppressed. A higher inhibition goes with strong suppression. As a reminder, the pKi is the Ki on a negative log10 scale, so that one unit is a factor of ten. The term pIC50 denotes the negative decadic logarithm of the IC50, by convention in mol/L. Read a high pIC50 as a small IC50.

T2 sequence (P61169 whole entry): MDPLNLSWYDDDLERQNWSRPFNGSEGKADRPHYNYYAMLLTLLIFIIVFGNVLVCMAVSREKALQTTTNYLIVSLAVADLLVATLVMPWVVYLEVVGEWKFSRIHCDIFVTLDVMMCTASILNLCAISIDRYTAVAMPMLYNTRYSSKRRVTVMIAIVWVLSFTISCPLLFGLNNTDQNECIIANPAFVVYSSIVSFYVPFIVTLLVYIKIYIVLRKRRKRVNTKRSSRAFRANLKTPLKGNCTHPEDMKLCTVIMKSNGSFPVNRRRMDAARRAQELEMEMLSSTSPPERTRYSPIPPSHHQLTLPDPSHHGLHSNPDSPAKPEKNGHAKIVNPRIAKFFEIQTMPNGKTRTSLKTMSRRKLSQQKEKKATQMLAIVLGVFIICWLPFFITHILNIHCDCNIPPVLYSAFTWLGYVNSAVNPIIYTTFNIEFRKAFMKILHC

Turning to `O=C(OCCN1CCN(c2ncccn2)CC1)C12CC3CC(CC1C3)C2` [Example 1, Hexahydro-2,5-methanopentalene-3a[1H]-carboxylic acid 2-[4-(2-pyrimidyl)-1-piperazinyl]ethyl ester], the values for the inhibition at 1 µM in experiment [1] and in experiment [2] were 93% and 47%, respectively. In experiment [1] (calculated from IC50 values), the pKi was 7.64.

Take `COc1ccccc1N1CCN(CCOC(=O)C23CC4CC(CC2C4)C3)CC1` [Example 2, Hexahydro-2,5-methanopentalene-3a[1H]-carboxylic acid 2-[4-(2-methoxyphenyl)-1-piperazinyl]ethyl ester]: the inhibition at 1 µM in experiment [1] was found to be 95%; in experiment [2], 100%.

`O=C(OCCCN1CCN(c2ncccn2)CC1)C12CC3CC(CC1C3)C2` [Example 3, Hexahydro-2,5-methanopentalene-3a[1H]-carboxylic acid 3-[4-(2-pyrimidyl)-1-piperazinyl]propyl ester]: the inhibition at 0.1 µM in experiment [1] (100 nM test compound) came out at 12%. In addition, in experiment [3] (IC50 M2 / IC50 M1), the “M2/M1 Ratio” value is 81. Also, the pIC50 is 6.07 in experiment [3] (rat hippocampus, [3H] pirenzipine 0.5 nM, 25° C., 60 minutes) and 4.16 in experiment [4].

For the compound `COc1ccccc1N1CCN(CCCOC(=O)C23CC4CC(CC2C4)C3)CC1` [Example 4, Hexahydro-2,5-methanopentalene-3a[1H]carboxylic acid 3-[4-(2-methoxyphenyl)-1-piperazinyl]propyl ester], the figures for the inhibition at 1 µM in experiment [1] and in experiment [2] were 96% and 100%, respectively.

Take `Cc1nc2sccn2c(=O)c1CCN1CCC(=C(c2ccc(F)cc2)c2ccc(F)cc2)CC1` [Ritanserin]: in experiment [5], the “clinical efficacy as anxiolytic-antidepressant agents” value is given as “demonstrate clinical efficacy as anxiolytic-antidepressant agents”.
